PubChem BioAssay AID248 (DTP/NCI, 2004)
“And” between values parts separate entries of the source, which are not always exact repeats. Equal values may be shown once. Inconclusive results and toxic doses are left out. Rule as the data show it: active = T/C of 150% or more; inactive = T/C below 125%.

Test system: L1210 leukemia ip in BDF1 mice, survival T/C
Test: NCI In Vivo Anticancer Drug Screen. Data for tumor model L1210 Leukemia (intraperitoneal) in B6D2F1 (BDF1) mice
Details: endpoint: mean survival time, higher = longer survival
Outline: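 Ratio derived from survival: compound-dosed mice over vehicle-dosed mice, all bearing a transplantable tumor.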

[1] = dose: 100.0 mg/kg/injection, schedule: Q01DX009 (ip), vehicle: saline
[2] = dose: 200.0 mg/kg/injection, schedule: Q01DX009 (ip), vehicle: saline
[3] = dose: 50.0 mg/kg/injection, schedule: Q04DX002 (ip), vehicle: saline
[4] = dose: 75.0 mg/kg/injection, schedule: Q01DX001 (ip), vehicle: Klucel (hydroxypropylcellulose) (HPC)
[5] = dose: 150.0 mg/kg/injection, schedule: Q01DX001 (ip), vehicle: Klucel (hydroxypropylcellulose) (HPC)
[6] = dose: 300.0 mg/kg/injection, schedule: Q01DX001 (ip), vehicle: Klucel (hydroxypropylcellulose) (HPC)
[7] = dose: 100.0 mg/kg/injection, schedule: Q04DX003 (ip), vehicle: Klucel (hydroxypropylcellulose) (HPC)
[8] = dose: 200.0 mg/kg/injection, schedule: Q04DX003 (ip), vehicle: Klucel (hydroxypropylcellulose) (HPC)
[9] = dose: 400.0 mg/kg/injection, schedule: Q04DX003 (ip), vehicle: Klucel (hydroxypropylcellulose) (HPC)
[10] = dose: 100.0 mg/kg/injection, schedule: Q01DX009 (ip), vehicle: Klucel (hydroxypropylcellulose) (HPC)
[11] = dose: 200.0 mg/kg/injection, schedule: Q01DX009 (ip), vehicle: Klucel (hydroxypropylcellulose) (HPC)
[12] = dose: 400.0 mg/kg/injection, schedule: Q01DX009 (ip), vehicle: Klucel (hydroxypropylcellulose) (HPC)
[13] = dose: 50.0 mg/kg/injection, schedule: Q01DX009 (ip), vehicle: saline with Tween-80
[14] = dose: 100.0 mg/kg/injection, schedule: Q01DX009 (ip), vehicle: saline with Tween-80
[15] = dose: 100.0 mg/kg/injection, schedule: Q04DX003 (ip), vehicle: saline with Tween-80
[16] = dose: 200.0 mg/kg/injection, schedule: Q04DX003 (ip), vehicle: saline with Tween-80

Measured: T/C

CC(=O)NCC[CH2][Sn]([c]1ccccc1)([c]1ccccc1)[c]1ccccc1
inactive: dose: 50.0 mg/kg/injection, schedule: Q01DX009 (ip), vehicle: saline 100 % of control | [1] 100 % of control | [2] 110 % of control

NCC1OC(OC2C(N)CC(N)C(OC3OC(CO)C(O)C(N)C3O)C2O)C(N)CC1O (stereo not given)
inactive: [3] 114 % of control | dose: 100.0 mg/kg/injection, schedule: Q04DX002 (ip), vehicle: saline 103 % of control | dose: 200.0 mg/kg/injection, schedule: Q04DX002 (ip), vehicle: saline 114 % of control

COC(=O)C1=CC2C3C=C(C(=O)OC)C(C3)C2C1 (stereo not given)
inactive: [4] 100 % of control | [5] 103 % of control | [6] 98 % of control

O=C1C=C(O)C(=O)C=C1O
inactive: dose: 3.0 mg/kg/injection, schedule: Q01DX009 (ip), vehicle: saline 111 % of control | dose: 5.0 mg/kg/injection, schedule: Q01DX001 (ip), vehicle: saline 103 % of control | dose: 6.0 mg/kg/injection, schedule: Q01DX009 (ip), vehicle: saline 98 % of control | dose: 10.0 mg/kg/injection, schedule: Q01DX001 (ip), vehicle: saline 101 % of control | dose: 10.0 mg/kg/injection, schedule: Q01DX009 (ip), vehicle: saline with Tween-80 100 % of control | dose: 12.0 mg/kg/injection, schedule: Q01DX009 (ip), vehicle: saline 103 % of control | dose: 12.5 mg/kg/injection, schedule: Q04DX002 (ip), vehicle: saline 105 % of control and 92 % of control | dose: 12.5 mg/kg/injection, schedule: Q04DX003 (ip), vehicle: saline 90 % of control | dose: 20.0 mg/kg/injection, schedule: Q01DX001 (ip), vehicle: saline 98 % of control | dose: 25.0 mg/kg/injection, schedule: Q04DX002 (ip), vehicle: saline 94 % of control | dose: 40.0 mg/kg/injection, schedule: Q01DX009 (ip), vehicle: saline with Tween-80 92 % of control | [3] 108 % of control

Cc1noc(/N=C(/C(=N/c2onc(C)c2C)c2ccccc2)c2ccccc2)c1C
inactive: [7] 97 % of control | [8] 103 % of control | [9] 97 % of control

NNS(=O)(=O)c1ccc(OCC(=O)O)cc1
inactive: [10] 98 % of control | [7] 102 % of control | [11] 94 % of control | [8] 98 % of control | [12] 94 % of control | [9] 98 % of control

COc1ccc2c(c1)NCc1c(Br)cc(Br)cc1C2=O
inactive: [1] 94 % of control | [2] 93 % of control | dose: 400.0 mg/kg/injection, schedule: Q01DX009 (ip), vehicle: saline 91 % of control

O=c1[nH]c2cc(Cl)ccc2c(CCl)c1Cl
inactive: dose: 25.0 mg/kg/injection, schedule: Q01DX009 (ip), vehicle: saline with Tween-80 92 % of control | [13] 94 % of control | [14] 89 % of control | dose: 100.0 mg/kg/injection, schedule: Q04DX003 (ip), vehicle: acetone 100 % of control

O=C(Nc1ccc(NC(=O)OCc2ccccc2)c(Cl)c1)OCc1ccccc1
inactive: [4] 93 % of control | dose: 75.0 mg/kg/injection, schedule: Q01DX009 (ip), vehicle: Klucel (hydroxypropylcellulose) (HPC) 92 % of control | [5] 95 % of control | dose: 150.0 mg/kg/injection, schedule: Q01DX009 (ip), vehicle: Klucel (hydroxypropylcellulose) (HPC) 94 % of control | [6] 95 % of control | dose: 300.0 mg/kg/injection, schedule: Q01DX009 (ip), vehicle: Klucel (hydroxypropylcellulose) (HPC) 94 % of control

C#CC[N+]1=CN(c2ccc(C)cc2)Cc2cc(C)ccc21
inactive: [13] 89 % of control | [14] 93 % of control | [15] 110 % of control | [16] 98 % of control

Cc1cc2c([N+](=O)[O-])c3ccc(Cl)nn3c2n[n+]1[O-]
inactive: dose: 62.5 mg/kg/injection, schedule: Q04DX002 (ip), vehicle: Klucel (hydroxypropylcellulose) (HPC) 106 % of control | dose: 125.0 mg/kg/injection, schedule: Q04DX002 (ip), vehicle: Klucel (hydroxypropylcellulose) (HPC) 114 % of control | dose: 250.0 mg/kg/injection, schedule: Q04DX002 (ip), vehicle: Klucel (hydroxypropylcellulose) (HPC) 95 % of control

C1CCC(N(CCN(C2CCCCC2)C2CCCCC2)C2CCCCC2)CC1
inactive: dose: 25.0 mg/kg/injection, schedule: Q04DX013 (ip), vehicle: carboxymethylcellulose (CMC) 100 % of control | dose: 50.0 mg/kg/injection, schedule: Q04DX013 (ip), vehicle: carboxymethylcellulose (CMC) 94 % of control | dose: 100.0 mg/kg/injection, schedule: Q04DX013 (ip), vehicle: carboxymethylcellulose (CMC) 96 % of control

O=C(O)C1C2C=Cc3ccccc3C21 (stereo not given)
inactive: dose: 400.0 mg/kg/injection, schedule: Q01DX001 (ip), vehicle: saline 90 % of control

CCN(CC)CC#CCN(CC)CC
inactive: [13] 92 % of control | [14] 97 % of control | [15] 102 % of control | [16] 90 % of control

Cc1ccc(/C=N/NC(=O)c2ccccc2NC(=O)c2ccccc2)cc1
inactive: [10] 105 % of control | [11] 97 % of control | [12] 95 % of control

CC(=O)/C=C(\C)OB(F)F
inactive: dose: 50.0 mg/kg/injection, schedule: Q01DX001 (ip), vehicle: saline 98 % of control | dose: 100.0 mg/kg/injection, schedule: Q01DX001 (ip), vehicle: saline 95 % of control

COc1ccc(C2C(=O)c3ccccc3C2=O)cc1OC
inactive: dose: 100.0 mg/kg/injection, schedule: Q01DX001 (ip), vehicle: Klucel (hydroxypropylcellulose) (HPC) 94 % of control | dose: 200.0 mg/kg/injection, schedule: Q01DX001 (ip), vehicle: Klucel (hydroxypropylcellulose) (HPC) 88 % of control

CN(C)C(=NN)N(C)C
inactive: dose: 50.0 mg/kg/injection, schedule: Q04DX003 (ip), vehicle: saline 105 % of control | dose: 100.0 mg/kg/injection, schedule: Q04DX003 (ip), vehicle: saline 100 % of control | dose: 200.0 mg/kg/injection, schedule: Q04DX003 (ip), vehicle: saline 100 % of control

COc1ccc2nc3cc(Cl)ccc3c(Cl)c2c1
inactive: dose: 50.0 mg/kg/injection, schedule: Q04DX003 (ip), vehicle: carboxymethylcellulose (CMC) 87 % of control | dose: 100.0 mg/kg/injection, schedule: Q01DX001 (ip), vehicle: carboxymethylcellulose (CMC) 97 % of control | dose: 100.0 mg/kg/injection, schedule: Q04DX003 (ip), vehicle: carboxymethylcellulose (CMC) 92 % of control | dose: 200.0 mg/kg/injection, schedule: Q01DX001 (ip), vehicle: carboxymethylcellulose (CMC) 90 % of control | dose: 200.0 mg/kg/injection, schedule: Q04DX003 (ip), vehicle: carboxymethylcellulose (CMC) 91 % of control | dose: 400.0 mg/kg/injection, schedule: Q01DX001 (ip), vehicle: carboxymethylcellulose (CMC) 100 % of control

CC1S(=O)(=O)CCS1(=O)=O
inactive: dose: 75.0 mg/kg/injection, schedule: Q01DX001 (ip), vehicle: saline with Tween-80 100 % of control | dose: 150.0 mg/kg/injection, schedule: Q01DX001 (ip), vehicle: saline with Tween-80 100 % of control | dose: 300.0 mg/kg/injection, schedule: Q01DX001 (ip), vehicle: saline with Tween-80 103 % of control

CCCCCCCCN(C(=S)NC(=O)c1ccccc1)c1ccccc1
inactive: [7] 93 % of control | [8] 89 % of control | [9] 91 % of control

CN(Cc1cc(Br)cc(Br)c1O)C1CC2CCC1(C)C2(C)C (stereo not given)
inactive: [7] 88 % of control | [8] 95 % of control | [9] 88 % of control

COc1ccc([N+](=O)[O-])cc1NC(=O)c1ccc(Cl)cc1
inactive: dose: 50.0 mg/kg/injection, schedule: Q01DX009 (ip), vehicle: Klucel (hydroxypropylcellulose) (HPC) 96 % of control | [10] 94 % of control | [11] 95 % of control | [12] 94 % of control

COc1cc(N=Nc2ccc3c(c2)Cc2ccccc2-3)c(OC)cc1N
inactive: dose: 100.0 mg/kg/injection, schedule: Q01DX001 (ip), vehicle: other 111 % of control | dose: 200.0 mg/kg/injection, schedule: Q01DX001 (ip), vehicle: other 88 % of control | dose: 400.0 mg/kg/injection, schedule: Q01DX001 (ip), vehicle: other 105 % of control
